Experimental data as given in BindingDB's records for doi:10.1016/j.ejmech.2020.113045 (Rheinische Friedrich-Wilhelms-University of Bonn, 2021).

What was measured:
[1] = Inhibition of ABCG2 (unknown origin) expressed in MDCK-II cells assessed as potentiation of SN-38-induced cytotoxicity measured after 72 hrs by MTT assay
[2] = Inhibition of ABCB1 (unknown origin) expressed in human A2780 ADR cells assessed as potentiation of daunorubicin-induced cytotoxicity measured after 72 hrs by MTT assay

CNc1cc(Nc2ccc(C#N)cc2)nc(-c2ccccc2)n1
EC50 [1]: 22 nM

CC(C)Nc1cc(Nc2ccc(C#N)cc2)nc(-c2ccccc2)n1
EC50 [1]: 18 nM

CCCNc1cc(Nc2ccc(C#N)cc2)nc(-c2ccccc2)n1
EC50 [1]: 15 nM

CCCCNc1cc(Nc2ccc(C#N)cc2)nc(-c2ccccc2)n1
EC50 [1]: 30 nM

N#Cc1ccc(Nc2cc(-c3ccccc3)nc(-c3ccccc3)n2)cc1
EC50 [1]: 41 nM

N#Cc1ccc(Nc2cc(Nc3ccccc3)nc(-c3ccccc3)n2)cc1
EC50 [1]: 44 nM

N#Cc1ccc(Nc2cc(NCc3ccccc3)nc(-c3ccccc3)n2)cc1
EC50 [1]: 26 nM

N#Cc1ccc(Nc2cc(NCCCc3ccccc3)nc(-c3ccccc3)n2)cc1
EC50 [1]: 67 nM

N#Cc1ccc(Nc2cc(NCCCCc3ccccc3)nc(-c3ccccc3)n2)cc1
EC50 [1]: 187 nM

N#Cc1ccc(Nc2cc(NCc3ccccn3)nc(-c3ccccc3)n2)cc1
EC50 [1]: 16 nM

N#Cc1ccc(Nc2cc(NCc3cccnc3)nc(-c3ccccc3)n2)cc1
EC50 [1]: 44 nM

N#Cc1ccc(Nc2cc(NCc3ccncc3)nc(-c3ccccc3)n2)cc1
EC50 [1]: 73 nM

N#Cc1ccc(Nc2cc(Nc3ccccc3O)nc(-c3ccccc3)n2)cc1
EC50 [1]: 147 nM
EC50 [2]: 34400 nM

N#Cc1ccc(Nc2cc(Nc3cccc(O)c3)nc(-c3ccccc3)n2)cc1
EC50 [1]: 181 nM

N#Cc1ccc(Nc2cc(Nc3ccc(O)cc3)nc(-c3ccccc3)n2)cc1
EC50 [1]: 171 nM

N#Cc1ccc(Nc2cc(Nc3ccc(C#N)cc3)nc(-c3ccccc3)n2)cc1
EC50 [1]: 231 nM
